Assay results taken from patent publication US20210002231A1 (Centre National de la Recherche Scientifique, priority 2018, published 2021).
Starred links: 1 amine or outer side, 2 acyl side, 3 side chain; linkers in the order of their positions; H or OH if unused. Non-standard residues stand in square brackets, D forms with d. Residues, ends and D or L forms follow the SMILES beside them. Nva(5-(4-Bn-piperidin-1-yl)) = N[C@@H](CCCN1CCC(Cc2ccccc2)CC1)C(=O)O; X5 = O=C1[C@@H](N[*:1])Cc2ccccc2CN1CCCC(=O)[*:2]; X1 = O=C1[C@@H](N[*:1])Cc2ccccc2CN1CCC(=O)[*:2]; Dmt = Cc1cc(O)cc(C)c1C[C@H](N)C(=O)O; dNMeA = CN[C@H](C)C(=O)O; Nlys = NCCCCNCC(=O)O; βAla = NCCC(=O)O

How the values were obtained:
[1] = molecular target: T1, human MOPr (Homo sapiens, UniProt P35372); test: BRET1 β-arrestin-2 recruitment assay; assay type: cell-based; parameters: expressed in transfected cells; host or cells: HEK293 cells stably expressing eYFP-β-arrestin-2, transiently transfected with the Rluc8-MOP plasmid; conditions: for EC50: Table 3B, — = non-detectable recruitment, read-out: MOPr (β-arrestin-2) EC50; for Emax: read-out: MOPr (β-arrestin-2) Emax; for β-arrestin-2 recruitment: in words;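 for Emax: Emax relative to maximal DAMGO-induced BRET as 100%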;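 for MOPr (β-arrestin-2) Emax: Emax relative to maximal DAMGO-induced BRET as 100%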
Protocol: Peak response amplitudes were normalized to basal and maximal (cells permeabilized with 20 μM digitonin) fluorescence levels. 1.8. β-Arrestin-2 recruitment assay The β-arrestin-2 recruitment assay was performed as described [34; 45] with minor modifications. Briefly, two days prior the experiment, HEK293 cells stably expressing eYFP-tagged β-arrestin-2 were transfected with the plasmid encoding Rluc8-MOP receptor. β-Arrestin-2 recruitment was measured at 37° C. in presence of 5 μM Coelenterazine H, 5 min after agonist addition.

[2] = molecular target: T1, human MOPr; test: cell-based; assay type: cell-based; parameters: expressed in transfected cells; HEK293-Glo20F cells (cAMP); conditions: for Emax: read-out: MOPr (cAMP) Emax; for MOPr-induced G protein activation: in words
Protocol: Stimulation by endogenous RF-amide peptides or test compounds for [^35S]-GTPγS binding to membranes from CHO cells expressing human NPFF1R or NPFF2R, were examined as reported. 1.6. Glo-Sensor cAMP Assay cAMP accumulation assay was essentially done as described with the following modifications: HEK293 cells stably expressing cAMP Glosensor-20F were used, with or without additional stable expression of each individual opioid receptor or NPFF1R. The cAMP responses were measured in presence of D-luciferin (1 mM).

[3] = Table 3B, read-out: MOPr (cAMP) EC50
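Throughout, for MOPr (cAMP) Emax: Emax relative to DAMGO as 100%.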

T1 sequence (P35372 whole entry): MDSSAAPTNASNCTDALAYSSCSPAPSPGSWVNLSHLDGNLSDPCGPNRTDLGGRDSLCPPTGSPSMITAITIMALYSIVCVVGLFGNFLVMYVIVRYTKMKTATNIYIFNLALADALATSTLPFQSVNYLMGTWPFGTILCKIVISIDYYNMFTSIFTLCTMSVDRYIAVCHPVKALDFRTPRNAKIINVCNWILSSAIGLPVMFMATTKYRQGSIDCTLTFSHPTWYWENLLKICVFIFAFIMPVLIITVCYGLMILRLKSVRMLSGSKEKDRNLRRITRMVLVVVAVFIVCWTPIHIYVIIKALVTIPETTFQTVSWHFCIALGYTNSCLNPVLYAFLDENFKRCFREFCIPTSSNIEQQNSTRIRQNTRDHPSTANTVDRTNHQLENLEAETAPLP

Row | SMILES | EC50 [1] [µM] | Emax [1] [%] | EC50 [2, 3] [µM] | Emax [2] [%] | β-arrestin-2 recruitment [1] | MOPr-induced G protein activation [2] | EC50 ([2]; MOPr (cAMP) EC50, Table 3B) [µM]
1 | Cc1cc(O)cc(C)c1C[C@H](N)C(=O)N(C)[C@H](C)C(=O)N[C@H]1Cc2ccccc2CN(CCC(=O)N[C@@H](CCCN2CCC(Cc3ccccc3)CC2)C(=O)N[C@@H](Cc2ccccc2)C(N)=O)C1=O [DP0007, H-Dmt-N(Me)-D-Ala-Aba-β-Ala-Bpa-Phe-NH2] (H-[Dmt][dNMeA][X1][Nva(5-(4-Bn-piperidin-1-yl))]F-NH2) | 0.214 | 12 | 0.04 ± 0.02 | 64 ± 6 |  |  | 
2 | Cc1cc(O)cc(C)c1C[C@H](N)C(=O)N1CCC[C@@H]1C(=O)N[C@H]1Cc2ccccc2CN(CCC(=O)N[C@@H](CCCN2CCC(Cc3ccccc3)CC2)C(=O)N[C@@H](Cc2ccccc2)C(N)=O)C1=O [DP0008, H-Dmt-D-Pro-Aba-β-Ala-Bpa-Phe-NH2] (H-[Dmt][dP][X1][Nva(5-(4-Bn-piperidin-1-yl))]F-NH2) |  |  | 0.0106 ± 0.0013 | 53 ± 0.7 | non-detectable | significant | 
3 | Cc1cc(O)cc(C)c1C[C@H](N)C(=O)N[C@H](CCCN1CCC(Cc2ccccc2)CC1)C(=O)N[C@H]1Cc2ccccc2CN(CCC(=O)N[C@@H](CCCN2CCC(Cc3ccccc3)CC2)C(=O)N[C@@H](Cc2ccccc2)C(N)=O)C1=O [DP0009, H-Dmt-D-Bpa-Aba-β-Ala-Bpa-Phe-NH2] |  |  | 0.8 | 35 |  |  | 
4 | Cc1cc(O)cc(C)c1C[C@H](N)C(=O)N[C@H](CCCNC(=N)N)C(=O)N[C@H]1Cc2ccccc2CN(CCC(=O)N[C@@H](CCCN2CCC(Cc3ccccc3)CC2)C(=O)N[C@H](Cc2ccccc2)C(N)=O)C1=O [DP0015, H-Dmt-D-Arg-Aba-β-Ala-Bpa-D-Phe-NH2] | 0.08 | 59 | 0.0059 ± 0.0003 | 109 ± 0.4 |  |  | 
5 | Cc1cc(O)cc(C)c1C[C@H](N)C(=O)N[C@H](CCCNC(=N)N)C(=O)N[C@H]1Cc2ccccc2CN(CCC(=O)N[C@@H](CCCN2CCC(Cc3ccccc3)CC2)C(=O)N[C@@H](Cc2ccccc2)C(=O)NCCC(N)=O)C1=O [DP0016, H-Dmt-D-Arg-Aba-β-Ala-Bpa-Phe-β-Ala-NH2] (H-[Dmt][dR][X1][Nva(5-(4-Bn-piperidin-1-yl))]F[βAla]-NH2) | 0.399 | 31 | 0.019 | 95 |  |  | 
6 | Cc1cc(O)cc(C)c1C[C@H](N)C(=O)N(C)[C@H](C)C(=O)N[C@H]1Cc2ccccc2CN(CCCC(=O)N[C@@H](CCCN2CCC(Cc3ccccc3)CC2)C(=O)N[C@@H](Cc2ccccc2)C(N)=O)C1=O [DP0017, H-Dmt-N(Me)-D-Ala-AbaGABA-Bpa-Phe-NH2] (H-[Dmt][dNMeA][X5][Nva(5-(4-Bn-piperidin-1-yl))]F-NH2) |  |  | 0.0141 | 70 | non-detectable | significant | 
7 | Cc1cc(O)cc(C)c1C[C@H](N)C(=O)N[C@H](CCCNC(=N)N)C(=O)N[C@H]1Cc2c(ccc3ccccc23)CN(CC(=O)N[C@@H](CCCN2CCC(Cc3ccccc3)CC2)C(=O)N[C@@H](Cc2c[nH]c3ccccc23)C(N)=O)C1=O [DP0023, H-Dmt-D-Arg-1AnaGly-Bpa-Trp-NH2] |  |  |  | 61 | non-detectable | significant | 0.0091
8 | Cc1cc(O)cc(C)c1C[C@H](N)C(=O)N[C@H](CCCNC(=N)N)C(=O)N[C@@H](Cc1ccccc1)C(=O)N(C)CC(=O)N[C@@H](CCCN1CCC(Cc2ccccc2)CC1)C(=O)N[C@@H](Cc1ccccc1)C(N)=O [DP0024, H-Dmt-D-Arg-Phe-N(Me)Gly-Bpa-Phe-NH2] (HELM PEPTIDE1{[Cc1cc(O)cc(C)c1C[C@H](N)C(=O)[*:2]].[dR].F.[Sar].[O=C([C@H](CCCN1CCC(Cc2ccccc2)CC1)N[*:1])[*:2]].F.[am]}$$$$V2.0) | ~0.05 | ~95 | 0.0099 | 97 |  |  | 
9 | Cc1cc(O)cc(C)c1C[C@H](N)C(=O)N(CCCCN)CC(=O)N[C@H]1Cc2ccccc2CN(CCC(=O)N[C@@H](CCCN2CCC(Cc3ccccc3)CC2)C(=O)N[C@@H](Cc2ccccc2)C(N)=O)C1=O [DP0035, H-Dmt-Nlys-Aba-β-Ala-Bpa-Phe-NH2] (H-[Dmt][Nlys][X1][Nva(5-(4-Bn-piperidin-1-yl))]F-NH2) |  |  | 0.0484 | 15 |  |  | 
